The values that follow come from patent publication US9897607B2, “Methods, kits, and systems for treatment of metastatic papillary thyroid cancer” (The Governors of the University of Alberta, priority 2012, dated 2018).

“Also recorded” adds a separate entry of the source.

For series [1], the system named is TPC-1 cell line. The series is described as follows: Cytoselect cell invasion assay, TPC-1. Type of series: cell-based, human. As to the method: (§1) As previously described, Cytoselect™ 96-well cell invasion assay kit was used (Cell Biolabs, San Diego, Calif., USA) to assess cell invasiveness according to the manufacturer's protocol.^46 Briefly, TPC-1, BCPAP and 8305C after transfected with either PDGFRα siRNA or scramble siRNA, 10000 cells were starved overnight and added to the inserts, PDGF-BB was added to some wells at the concentration of 25 ng/mL, PDGF-BB was added 1 h later for inhibitors, sunitinib (0.2 umol/L), Ly294002 (10 umol/L) and (U0126) 2 umol/L, cells were seeded into the insert plate for 16 hours, the invasive cells passed through basement membrane layer to the bottom and dissociated from membrane by the addition of cells detachment buffer, the invasive cells were lysed and followed by quantification using CyQuant GR fluorescent Dye. For cell viability analysis 10000 cells were seeded per well and cultured for 16 hours. MTS assay (Promega, Madison, USA) was then performed in 4 replicates followed manufacturer's instructions. PTC cell lines transfected with PDGFR specific siRNA or scrambled control were plated at a density of 10,000 or 20,000/ml and cultured for 5 days. Cell counts were done on days 2, 3 and 5 using trypan blue (Sigma-Aldrich, Oakville, Canada) and results expressed as total number of viable cells. MTS assay was done in 7 replicates as per manufacturer's instructions. The absorbance was recorded by a BioRad spectrophotometer at day 5 of cell culture.

Series [2] concerns TPC-1 cell line. Kind of series: Cell viability (MTS assay), TPC-1. The format is cell-based, human. The following applies: small molecule inhibitors Ly294002, U0126, 16 hours. The protocol:
as §1, with “MTS assay was done in 7 replicates as per manufacturer's instructions.” left out
(Tetrazolium dyes change colour on reduction, which living cells bring about.)

Series [3] deals with PDGFR-α/β, MAPK/ERK and PI3K/Akt pathways in TPC-1 cells. Kind of series: Western blot of PDGFR activation and MAPK/ERK, PI3K/Akt signalling, TPC-1. Type of series: cell-based, human. The protocol:
(§2) Primary cell culture and experimental cell lines were maintained in RPMI 1640 media supplemented with 10% FBS. The cells were seeded in a 100-mm culture dish and were grown in a humidified 5% CO2 incubator. For PDGF-BB stimulation (25 ng/ml), cells were grown to about 80% confluence and incubated in serum-free medium overnight prior to each experiment. MAPK/ERK inhibitors U0126 and PD98059 were purchased from Calbiochem (Toronto, Ontario, Canada). PI3K/Akt inhibitor ly294002 was purchased from Cell Signaling Technology (Danvers, Mass., USA). Cells that were treated with inhibitors were given varying concentrations: U0126; 2 umol/L and 10 umol/L; Ly294002 10 umol/L and 25 umol/L; Sunitinib 0.25 umol/L. In all cases, unless otherwise indicated the inhibitors were given to cells and 60 minutes later the PDGF-BB was added to the cultures followed by Western blot analysis.
(§3) Cells were lysed in RIPA buffer [150 mM NaCl, 100 mM Tris (pH 8.0), 1% Triton X-100, 1% deoxycholic acid, 0.1% SDS, 5 mM EDTA, and 10 mM NaF] supplemented with 1 mM sodium vanadate, 2 mM leupeptin, 2 mM aprotinin, 1 mM phenylmethylsulfonyl fluoride (PMSF), 1 mM DTT, 2 mM pepstatin, and 1:100 protease inhibitor cocktail set III on ice. After centrifugation at 4° C. at 18,000 rpf for 15 min, the supernatant was harvested as the total cellular protein extracts and stored at −80° C. The protein concentration was determined using Bio-Rad protein assay reagent (Richmond, Va., USA). Running samples were prepared by adding a sample reducing agent and SDS sample buffer, incubating at 98° C. for 5 min. Aliquots of protein extract samples were separated by SDS-polyacrylamide gel electrophoresis (SDS-PAGE) and transferred to nitrocellulose membrane. Membranes were blocked with 5% nonfat dry milk in 1×TBS containing 0.05% Tween-20 for 60 min, followed by incubation with primary antibodies 4° C. overnight. Protein bands were detected by incubation with horseradish peroxidase-conjugated antibodies (Pierce Biotechnology, Rockford, Ill., USA) and visualized with SuperSignal West Pico chemiluminescence substrate (Thermo Scientific, Rockford, Ill., USA).

Series [4] concerns PDGFR-α (phospho-PDGFR), PI3K/Akt and MAPK/ERK pathways. Kind of series: Western blot of primary cell culture from metastatic papillary thyroid cancer lymph node, PDGF-BB stimulation. Type of series: cell-based, human. The protocol: as §2, §3
In general terms: In western blotting, separated proteins are transferred to a membrane and probed.

Another series deals with 8305C cell line. The series is described as follows: Cytoselect cell invasion assay, 8305C. The format is cell-based, human. As to the method: as §1
A further series has as its system BCPAP cell line. Kind of series: Cytoselect cell invasion assay, BCPAP. Type of series: cell-based, human. As to the method: as §1, with “MTS assay was done in 7 replicates as per manufacturer's instructions.” left out
Series [5] relates to TPC-1, 8305C and BCPAP cell lines. Kind of series: Cell growth of PTC cell lines with sunitinib (FIG. 6). The format is cell-based, human. To be noted: all of the cell lines; absence of PDGF-BB stimulation.
In series [6] the test system is PDGFR-α/β, MAPK/ERK and PI3K/Akt pathways in 8305C cells. Kind of series: Western blot of PDGFR activation and MAPK/ERK, PI3K/Akt signalling, 8305C. The format is cell-based, human. The protocol: as §2, §3
The test system of another series is thyroid cancer. To be noted: thyroid cancer trials; cited from earlier work.
A further series concerns TPC-1-derived cell lines. The series is described as follows: Mice xenograft model with shRNA TPC-1-derived cell lines. The following applies: mice inoculated with cell lines in Matrigel; 20 days after inoculation; versus other groups. The format is in vivo. The protocol:
To selectively and stably silence the expression of the PDGFR-alpha and-beta receptors in the TPC-1, BCPAP and 8305C cell lines we used the HuSH-29 shRNA Vector system (HuSH-29 shRNA Retroviral Vector Systems; OriGene Technologies, Inc.). Briefly, to silence the expression of the PDGFR-alpha receptor PTC cells were transduced with the pRS shRNA retrovirus system (Puro+) followed by selection in puromycin (2.5 ug/mL). Resistant cells were assessed by western blot to select the sequences that produced the higest levels of protein expression knock-down. The sequences used for these studies were […] (SEQ ID NO: 1) for the TPC-1 cell line and […] (SEQ ID NO: 2) for the 8305C cell line. To selectively knock down the PDGFR-beta receptor were transduced with the pGFP-BR-S shRNA retrovirus system (BSD+) followed by selection in blasticidin (500 ug/mL). Resistant cells were again assessed by western blot to select the sequences that produced the higest levels of protein expression knock-down. […]
The experiments of FIG. 13 depict knock down of PDGFR-alpha or -beta subunit results in opposing effects in tumour formation on a mice xenograft model. […] The average tumour volume (top panel) and tumour weight (bottom panel) was much higher for mice given cell lines expressing only PDGFR-alpha and statistical significance between groups were calculated 20 days after inoculation.

The next series has as its system KTC-1 cell line. Kind of series: Cytoselect cell invasion assay, KTC-1. To be noted: KTC-1 (neither subunit); also increasing levels or longer stimulation. Type of series: cell-based, human.
Setting [7] is: primary culture, PDGF-BB 25 ng/ml.

As to `N#CC(=C(/N)Sc1ccccc1N)/C(C#N)=C(\N)Sc1ccccc1N` [U0126], the “PDGF-BB mediated increases in invasive potential” value in the series with TPC-1 cell line [1] (TPC-1, U0126 2 umol/L (MAPK/ERK blockade), PDGF-BB 25 ng/mL 1 h later, 16 hours) was “sufficient to abrogate increases in invasive potential; also recorded: prevents PDGF-BB mediated increases in invasive potential”. In the series with TPC-1 cell line [2], the cell viability result is listed as “not significantly altered”. Further, the “MAPK/ERK pathway blockade (Western blot)” value in series [3] (PDGF-BB stimulated TPC-1 cells, U0126 2 umol/L and 10 umol/L) is reported as “decreased protein expression; also recorded: nearly complete”.
In the case of `CCN(CC)CCNC(=O)c1c(C)[nH]c(/C=C2\C(=O)Nc3ccc(F)cc32)c1C` [sunitinib, Sunitinib malate], in series [4] (sunitinib 0.25 umol/L given 60 minutes before PDGF-BB 25 ng/ml, semi-quantitative Western blot), the “activation of PDGFR (phospho-PDGFR) and downstream PI3K/Akt and MAPK/ERK pathways by PDGF-BB” value is given as “can be blocked; also recorded: completed blocked”. The “change in invasive potential with PDGF-BB stimulation” value with TPC-1 cell line [1] (TPC-1, sunitinib 0.2 umol/L, PDGF-BB 25 ng/mL added 1 h later, 16 hours) is “virtually completely abates any change in invasive potential; also recorded: abated any change in invasive potential”; in the series on 8305C cell line (8305C, sunitinib 0.2 umol/L, PDGF-BB 25 ng/mL added 1 h later, 16 hours) it was “virtually completely abates any change in invasive potential; also recorded: abated any change in invasive potential”. For the same molecule, the “invasive potential without PDGF-BB stimulation” value is on record as “does not alter invasive potential” in the series on TPC-1 cell line [1] (TPC-1, sunitinib 0.2 umol/L, no PDGF-BB); “does not alter invasive potential” in the series on 8305C cell line (8305C, sunitinib 0.2 umol/L, no PDGF-BB); “does not alter invasive potential” with BCPAP cell line (BCPAP, sunitinib 0.2 umol/L, no PDGF-BB). For the same molecule, the “effect on cell growth” value in [5] was “not significant”. Moreover, the “activation of PDGFR-α/β (phospho-PDGFR)” value in series [3] (TPC-1, sunitinib 0.25 umol/L, PDGF-BB 25 ng/ml 60 minutes later) is given as “completely disrupts PDGFR activation; also recorded: completely blocks activation of PDGFR-α/β”; in series [6] (8305C, sunitinib 0.25 umol/L, PDGF-BB 25 ng/ml 60 minutes later) it was “completely disrupts PDGFR activation; also recorded: completely blocks activation of PDGFR-α/β”. Further, the “activity in PI3K/Akt and MAPK/ERK pathways” value in series [3] (TPC-1, sunitinib 0.25 umol/L, PDGF-BB stimulated) is “significant decreased activity”; in [6] (8305C, sunitinib 0.25 umol/L, PDGF-BB stimulated) it was “significant decreased activity”. Further, the outcomes with thyroid cancer is on record as “favourable outcomes”. For the same molecule, the side-effect profiles entry with thyroid cancer was “acceptable side-effect profiles”.
Regarding `O=c1cc(N2CCOCC2)oc2c(-c3ccccc3)cccc12` [Ly294002], the cell viability entry with TPC-1 cell line [2] is on record as “not significantly altered”.
Turning to “TGCCTCCGACGAGATCTATGAGATCATGC (SEQ ID NO: 3) (listed as Homo sapiens) [sh PDGFR-beta, shRNA (pGFP-BR-S retrovirus system) knocking down PDGFR-beta in TPC-1; cells then express only PDGFR-alpha]”, in the series on TPC-1-derived cell lines, the average tumour volume entry is reported as “much higher” and the tumour weight entry is listed as “much higher”.
Consider “PDGF-BB: PDGFR ligand known to bind all subunits of PDGFR, purchased from GIBCO”, for which, in [4] (setting [7]), the “phospho-Akt (PI3K/Akt pathway)” value is on record as “significant increases”. In addition, the “phospho-ERK (MAPK/ERK pathway)” value in series [4] (setting [7]) is recorded as “small increase”. For the same molecule, the phospho-PDGFR result in [4] (setting [7]) is reported as “activated PDGFR-α”. The “invasive potential on PDGF-BB stimulation” value in the series on TPC-1 cell line [1] (TPC-1 (PDGFR-α and -β), PDGF-BB 25 ng/mL) was “significant increase in invasive potential; also recorded: increased invasive potential”; with 8305C cell line (8305C (PDGFR-α only), PDGF-BB 25 ng/mL), “significant increase in invasive potential; also recorded: increased invasive potential”; with BCPAP cell line (BCPAP (PDGFR-β only), PDGF-BB 25 ng/mL), “did not exhibit any change in invasive potential”; with KTC-1 cell line, “did not exhibit any change in invasive potential”. The “phospho-PDGFR-α/β, phospho-Akt, and phospho-ERK” value in series [3] (TPC-1, PDGF-BB 25 ng/ml) is recorded as “strong up-regulation”; in series [6] (8305C, PDGF-BB 25 ng/ml) it was “strong up-regulation”. The “time of return of levels to baseline” value in series [3] (TPC-1, PDGF-BB stimulation) was approximately 60 min. Moreover, in series [3] (TPC-1, PDGF-BB stimulation), the “time to increases in phospho-PDGFR-α/β, phospho-Akt and phospho-ERK” value is not above 5 min. Moreover, in [3] (TPC-1, PDGF-BB stimulation), the “time to maximal activation of both pathways” value is not above 15 min. The phospho-ERK entry in [6] (8305C (BRAF mutation, MAPK/ERK constitutively activated), PDGF-BB) is recorded as “small increase”.
As for `CNC(=O)c1cc(Oc2ccc(NC(=O)Nc3ccc(Cl)c(C(F)(F)F)c3)cc2)ccn1` [Sorafenib, sorafenib], in the series on thyroid cancer, the outcomes is “favourable outcomes” and the side-effect profiles result is on record as “acceptable side-effect profiles”.
